# Laboratory results taken from article PMC10016340 (Chemical Science, 2023).
# Read-outs that look alike come from different tables or passages of the source.
# Experiments:
# α-syn = α-syn (Homo sapiens, UniProt P37840); assay: ThT aggregation kinetics of α-syn; assay type: biochemical; conditions: for Effect on α-syn fibril formation (ThT, words): 300 rpm, 37 °C
# αSOs-Alexa488 [1] = molecular target: T1, αSOs-Alexa488 (Homo sapiens, UniProt P37840); assay: FIDA binding of αSOs to neuronal proteins in solution
# [2] = molecular target: T2, αSO (α-synuclein oligomers) (Homo sapiens, UniProt P37840); assay: Membrane permeabilization; assay type: biochemical; conditions: for Response in dose-response calcein assay: even at 20 μM
# αSO = αSO (Homo sapiens, UniProt P37840); assay: biochemical; assay type: binding; conditions: for αSO binding signal in sandwich ELISA vs positive control: 2 mM compound, 1 μg mL^−1 αSOs
# [3] = Ultracentrifugation for compound-vesicle binding; conditions: 100 μM compound, 1 mM DOPG vesicles, 30 min, ultracentrifugation 1 h 40 000 rpm
# [4] = test system: human neuroblastoma cells; conditions: by inhibiting interactions with lipid membranes; cited from earlier work
# [5] = molecular target: αSOs-Alexa488 binding to DOPG liposomes (Homo sapiens, UniProt P37840); assay: FIDA αSO-vesicle binding inhibition assay; conditions: 5 μM compound, 50 μM DOPG; αSO-vesicle complex without compound ∼60 nm
# [6] = molecular target: T2, αSO (α-synuclein oligomers); conditions: cited from earlier work
# αSOs-Alexa488 [7] = molecular target: T1, αSOs-Alexa488; assay: FIDA effect of lead compounds on free αSOs; assay type: binding; conditions: 150 nM αSO, 5 μM compound; 13% without compound
compound,measurement,setting,value
Cofilin-1 [Cfl1],"Effect of protein ligand on α-syn aggregation (ThT, words)","α-syn; 20 μM α-syn monomer, 1 μM ligand",dramatic reduction in aggregation
same,Change in Rh of αSOs-Alexa488 on titration with ligand,"αSOs-Alexa488 [1]; up to 150 μM ligand, in solution",little change in Rh
"CC(C)=CC[C@@H](O)C1=CC(=O)c2c(O)ccc(O)c2C1=O [A7, Shikonin]",Response in dose-response calcein assay,[2],failed to show any response
same,αSO binding signal in sandwich ELISA vs positive control,αSO,slightly higher absorption than the positive control
"CC(C)(C)CC(C)(C)c1ccc(OCCOCC[N+](C)(C)Cc2ccccc2)cc1 [A3, Benzethonium]",Percentage of compound bound to DOPG vesicles (pelleted),[3],60–95%
"N.N.O=C([O-])C1(C(=O)[O-])CCC1.[Pt+2] [A9, Carboplatin]",Response in dose-response calcein assay,[2],failed to show any response
CC(C)[C@@H](CC[C@@H](C)[C@H]1CC[C@H]2[C@@H]3[C@H](O)C[C@H]4C[C@@H](NCCCNCCCCN)CC[C@]4(C)[C@H]3CC[C@]12C)OS(=O)(=O)O [squalamine],Suppression of αSO toxicity,[4],completely suppress the toxicity of αSOs
"N.N.[Cl][Pt][Cl] [A8, Cisplatin]",Percentage of compound bound to DOPG vesicles (pelleted),[3],0–2%
"C=C1c2cccc(O)c2C(=O)C2=C(O)[C@]3(O)C(=O)C(C(N)=O)=C(O)[C@@H](N(C)C)[C@@H]3[C@@H](O)[C@H]12 [A5, Metacycline]",Response in dose-response calcein assay,[2],failed to show any response
same,"Effect on α-syn fibril formation (ThT, words)","α-syn; 20 μM α-syn, 20 μM compound",completely inhibited fibril formation
same,αSO binding signal in sandwich ELISA vs positive control,αSO,slightly higher absorption than the positive control
"COc1ccccc1CNCCCCCCNCCCCCCCCNCCCCCCNCc1ccccc1OC [A6, Methoctramine]",Percentage of compound bound to DOPG vesicles (pelleted),[3],60–95%
same,IC50,[2],0.32 µM
same,Effect on lag phase of α-syn aggregation,"α-syn; 20 μM α-syn, 20 μM compound",modestly increased the lag phase
same,Apparent size (Rh) of αSOs-Alexa488 in the presence of DOPG liposomes and compound,[5],~10 nm
same,αSO binding signal in sandwich ELISA vs positive control,αSO,to a smaller extent
C/C=C1/[C@H](O[C@@H]2O[C@H](CO)[C@@H](O)[C@H](O)[C@H]2O)OC=C(C(=O)OC)[C@H]1CC(=O)OCCc1ccc(O)c(O)c1 [oleuropein],Inhibition of calcein release,[6]; negative control,weak or no inhibitory effect
O=C(O[C@@H]1Cc2c(O)cc(O)cc2O[C@@H]1c1cc(O)c(O)c(O)c1)c1cc(O)c(O)c(O)c1 [EGCG],Percentage of compound bound to DOPG vesicles (pelleted),[3],0–2%
same,Inhibition of calcein release,[6]; positive control,completely inhibits calcein release
same,Percentage of α-syn monomers in αSO sample,αSOs-Alexa488 [7],22%
same,"Effect on α-syn fibril formation (ThT, words)","α-syn; 20 μM α-syn, 20 μM compound",completely inhibited fibril formation
same,Apparent size (Rh) of αSOs-Alexa488 in the presence of DOPG liposomes and compound,[5],50 nm
"Cc1cc(C(C)(C)CC(C)(C)C)ccc1OCCOCC[N+](C)(C)Cc1ccccc1 [A2, Methyl benzethonium]",Percentage of compound bound to DOPG vesicles (pelleted),[3],60–95%
same,Percentage of α-syn monomers in αSO sample,αSOs-Alexa488 [7],23%
same,Decrease of half-time of fibrillation compared to α-syn alone,"α-syn; 20 μM α-syn, 20 μM compound",~2 fold
same,Apparent size (Rh) of αSOs-Alexa488 in the presence of DOPG liposomes and compound,[5],~10 nm
same,Kd,αSO,120 ± 90 µM
same,αSO binding signal in sandwich ELISA vs positive control,αSO,decrease in binding
"[H]/N=C(\N/C(=N/[H])NCCCCCCNC(=N)NC(=N)Nc1ccc(Cl)cc1)Nc1ccc(Cl)cc1 [A1, Chlorhexidine]",Percentage of compound bound to DOPG vesicles (pelleted),[3],60–95%
same,Decrease of half-time of fibrillation compared to α-syn alone,"α-syn; 20 μM α-syn, 20 μM compound",~2 fold
same,Apparent size (Rh) of αSOs-Alexa488 in the presence of DOPG liposomes and compound,[5],~10 nm
same,Kd,αSO,130 ± 40 µM
same,αSO binding signal in sandwich ELISA vs positive control,αSO,decrease in binding
Serine-tRNA ligase [SerRS],Reduction of half-time of α-syn fibrillation,"α-syn; 20 μM α-syn, 1 μM ligand",more than 3 fold
same,Rh of αSOs-Alexa488 after binding to ligand,"αSOs-Alexa488 [1]; 100–150 μM ligand, αSO alone 10 nm",~12.5 nm
